Results: patent US20230124720A1, “APPLICATION OF ACRIDINEDIONE COMPOUND IN PREPARATION OF ANTI-DIABETIC DRUGS” (THE FOURTH MILITARY MEDICAL UNIVERSITY, priority 2020, published 2023)

Experiments:
[1] = system: MIN6 cells; assay: Western Blot / immunofluorescence of insulin signaling related molecules in insulin-resistant MIN6 cells; type: cell-based, mouse
Experimental: MIN6 cells were seeded in culture dishes at the appropriate density and cultured as described in step 2.1 to a confluency of about 80%. Cells were divided into the following 5 groups: (1) normal control group (Con): cultured with blank 1640 medium; (2) insulin resistance model panel (IR): treatment with 0.125 mmol/L PA for 24 h to induce establishment of a MIN6 cell insulin resistance model; (3) 3 μmol/L ADD-16 administration group (ADD I): 3 μmol/L ADD-16 intervention was given for 24 h after successful establishment of the insulin resistance model; (4) 10 μmol/L ADD-16 administration group (ADD II): 10 μmol/L ADD-16 intervention was given for 24 h after successful establishment of the insulin resistance model; (5) TAK875 control group (TAK875): 10 μmol/L TAK875 was administered as a positive control drug intervention for 24 h after successful establishment of the insulin resistance model. At the end of the group administration, groups of cells were harvested for WB or IF experiments.

[2] = system: STZ-induced T2DM rats; assay: Postprandial blood glucose in STZ-induced T2DM rats; type: in vivo, rat; conditions: for reduction in blood glucose compared to the TD group: end of administration
Experimental: (§1) 150 male SD rats, housed in cages in a clean constant temperature (23±2° C.) and humidity (55±10%) animal house, were manually adjusted on a daily 12 h/12 h diurnal light cycle with free access to water. After 3 days of adaptive feeding, 150 rats were randomly divided into normal and model groups. The normal (Con, n=15) group of rats remained on raw chow and the model group (n=135) of rats were given high fat high sugar chow. All rats were fed twice daily and the amount of feed was adjusted as needed to ensure adequate feed. After 8 weeks of group feeding, the model group rats were given an intraperitoneal injection of 25 mg/kg STZ solution with a 12 h fast prior to injection. After injection, feeding was continued as in the original method, blood was taken from the tail vein at 72 h for blood glucose measurement, and rats with fasting blood glucose levels ≥11.1 mmol/L on different days were screened for successful artificial induction of T2DM and administered in groups for the next experiment. 135 rats with successful modeling were randomly divided into 9 groups: […] (2) 0.01 mg/kg ADD-16 administration group (ADD I, n=15): daily administration of 0.01 mg/kg ADD-16 solution by gavage; (3) 0.1 mg/kg ADD-16 administration group (ADD II, n=15): daily administration of a 0.1 mg/kg ADD-16 solution by gavage; (4) 1 mg/kg ADD-16 administration group (ADD III, n=15): daily administration of a 1 mg/kg ADD-16 solution by gavage; (5) 3 mg/kg ADD-16 administration group (ADD IV, n=15): daily administration of a 3 mg/kg ADD-16 solution by gavage; (6) 10 mg/kg ADD-16 administration group (ADD V, n=15): daily administration of a 10 mg/kg ADD-16 solution by gavage; (7) 50 mg/kg ADD-16 administration group (ADD VI, n=15): daily administration of a 50 mg/kg ADD-16 solution by gavage; […] (9) Sitagliptin control group (ST, n=15): daily administration of a 6 mg/kg sitagliptin solution by gavage. […] Relevant indicators of lipid metabolism were measured after the end of the study.

[3] = system: ZDF rat islet tissue; assay: Western Blot of insulin signaling related molecules in ZDF rat islet tissue; type: in vivo; conditions: compared to TD group, P<0.001, most pronounced at 10 mg/kg
[4] = system: STZ-induced T2DM rats; assay: Insulin tolerance test (ITT) in T2DM rats; type: in vivo, rat
Experimental: as §1, with “study. […] After the 120 min blood glucose value determination was completed, the diet was resumed. In the test, the condition of the rats was observed, and when abnormalities occurred, the experiment was stopped in time and a glucose solution was given by gavage to prevent death due to hypoglycemia.” for “study.”

[5] = ADD IV group, 3 mg/kg daily by gavage
[6] = ADD V group, 10 mg/kg daily by gavage
[7] = ADD VI group, 50 mg/kg daily by gavage

CC1(C)CC(=O)C2=C(C1)NC1=C(C(=O)CC(C)(C)C1)C2c1ccc(OCc2ccc(C(=O)O)cc2)c(Br)c1 [ADD-16]
GPR40 expression, immunofluorescence staining (in words) ([1]; MIN6 cells): upregulate GPR40 expression
expression of insulin signaling-related molecules, Western Blot (in words) ([1]; insulin-resistant MIN6 cells, 24 h, P<0.001): upregulate GPR40, PGC-1α, P-P38, P-EP300, PPARγ, P-AKT, PI3K, IRS1 and GLUT4 expression
reduction in blood glucose compared to the TD group [2, 5]: 55.0%
reduction in blood glucose compared to the TD group [2, 6]: 56.8%
reduction in blood glucose compared to the TD group [2, 7]: 56.2%
hypoglycemic effect (in words) ([2]; T2DM rats, 3, 10, 50 mg/kg): significant hypoglycemic effect
expression of insulin signaling-related molecules, Western Blot (in words) [3]: upregulate the expression of GPR40, PGC-1α, P-P38, P-EP300, PPARγ, P-AKT, PI3K, IRS1 and GLUT4
decrease of ITT AUC compared to the TD group [4, 5]: 46.5%
decrease of ITT AUC compared to the TD group [4, 6]: 43.7%
decrease of ITT AUC compared to the TD group [4, 7]: 45.2%
